Values of other authors, collected in US8307894B2, “Composition and method for inhibiting the deleterious effects of sulfate reducing bacteria” (priority 2009, dated 2012).
Where two headings read alike, the source gives them in different places.

How the values were obtained:
[1] = not given; remark: listed apart in the source
[2] = tested on: insects and aquatic life including fish
[3] = tested on: sulfate reducing bacteria; details: government study (12/04)

SMILES	Solubility (in ethanol)	Solubility (in ether and acetone)	lifetime in the environment ([1]; breaks down when exposed to sunlight)	persistence in water ([1]; in water)	toxicity [2]	toxicity (humans and other mammals)	inhibition of sulfate reducing bacteria [3]
C=C(C)[C@H]1Cc2c(ccc3c2O[C@@H]2COc4cc(OC)c(OC)cc4[C@@H]2C3=O)O1 [rotenone]	slightly soluble	Soluble	six	six	extremely toxic	mildly toxic	
[O]=[Mo](=[O])([O-])[O-] [molybdate]							possible candidates as inhibitors
